Read-outs that look alike come from different tables or passages of the source. Peptide text beside a SMILES is read from it.
What was measured:
H5 Avian Influenza virus = settings: dog
[1] = test system: Influenza virus strain PR8; parameters: species or system mice; settings: mouse, in vivo
HSV-1 KOS mutant hrR3 [2] = settings: 25 μM peptide
hrR3 [3] = assay: Virucidal assay; assay type: cell-based, HSV-1
Experimental: […] The treated virus was diluted 200-fold with serum-supplemented DMEM and assayed for infectivity approximately 1 hour later in microtiter wells seeded with Vero cells (3.5×10^4 cells/well) 1 d earlier. Forty or 100 microliter volumes of diluted virus were adsorbed for 1 or 2 h at 37° C. and lacZ^+ cells were scored 8 hours later. In some experiments, aliquots of diluted virus were first dialyzed (Spectra/Por; MWCO 12-14,000) overnight at 4° C. against a 60-fold excess volume of Hepes-buffered serum-supplemented DMEM or forced by syringe through 0.22 μm membranes (Millex-GV; Millipore) before the remaining infectious virus was assayed.

HSV-1 KOS mutant hrR3 [4] = settings: read-out: IC50 (lacZ+ cells)
HSV-1 KOS = settings: depending on concentration
hrR3 [5] = settings: read-out: IC50, infection in presence of peptide with peptide treated virions
hrR3 virions = assay: Trypsinization of peptide-treated virions; assay type: cell-based, HSV-1; settings: for IC50: 1 h at 37° C.
MTS assay = settings: human, CEMx174 cells (T-B hybridoma)
[6] = MTS assay, eight cell lines; settings: Vero, HeLa, CV-1PD, TM-1, DP-9, NIKS and W12E cells
[7] = test system: Vero, HeLa, CV-1PD, TM-1, DP-9, CEMx174, NIKS, W12E cells; assay: MTS assay, eight cell lines; settings: for cytotoxicity to cells (MTS), overall: eight cell lines
HSV-1 KOS virions = assay: Electron microscopy of peptide-treated virus (aggregation)
Experimental: Electron microscopy: Purified HSV-1 KOS virions (2.5×10^7 pfu/mL) according to Visalli et al., Virus Res. 29:167 (1993) were treated with 25 μM antiviral peptide SEQ ID NO:1 or the control peptide EBX (SEQ ID NO:17) in 40 μL serum-free DMEM buffered with 25 mM Hepes (pH 7.4) for 5 to 60 min at 4 or 23° C. Aliquots (10 μL) were adsorbed to pioloform poly-L-lysine-coated grids for 5 min at 23° C. Grids were rinsed with PBS, stained with 2% phosphotungstic acid (PTA) in water adjusted to pH ˜6, and air dried. Alternatively, virus was pre-adsorbed to grids and treated with peptides thereafter. A total of 4×10^9 pfu/mL of purified HSV-1 KOS in 5 μL PBS was applied to the coated grids for 5 min at 23° C., and the grids were rinsed once with serum-free DMEM buffered with 25 mM Hepes (pH 7.4) and treated with 15 μL of 5 mM EB or EBX in the same medium for 30 min at 37° C. The pH of highly concentrated solutions of antiviral peptide SEQ ID NO:1 and EBX was re-adjusted to 7.4 with NaOH prior to use. To prevent evaporation of the peptide-containing solutions, each grid was held in a Hiraoka flexible staining plate and covered with a miniature bell jar made from an 0.5 mL polypropylene micro-centrifuge tubes, small enough for the 15 μL to fill half of the bell jar facing the coated surface of the grid. The entire assembly was then incubated in a moist chamber for 30 min at 37° C. […]

HSV-1 KOS mutant hrR3 [8] = assay: Inactivation of pre-adsorbed virus (virus inactivation); assay type: cell-based
HSV-1 KOS mutant hrR3 [9] = test system: HSV-1 KOS mutant hrR3

CC(C)C[C@H](NC(=O)[C@H](C)NC(=O)[C@H](CC(C)C)NC(=O)[C@H](CC(C)C)NC(=O)[C@@H](NC(=O)[C@H](C)NC(=O)[C@@H]1CCCN1C(=O)[C@H](CC(C)C)NC(=O)[C@H](CC(C)C)NC(=O)[C@H](C)NC(=O)[C@@H](NC(=O)[C@H](C)NC(=O)[C@H](C)NC(=O)[C@H](CCCCN)NC(=O)[C@H](CCCCN)NC(=O)[C@H](CCCNC(=N)N)NC(=O)[C@@H](N)CCCNC(=N)N)C(C)C)C(C)C)C(=O)N[C@@H](CC(C)C)C(=O)N[C@@H](C)C(=O)N1CCC[C@H]1C(=O)O [EB] (H-RRKKAAVALLPAVLLALLAP-OH)
concentration at which cytotoxic effects were seen first (Vero cells): 200 µM
cytotoxic effects (trypan blue) in cellular resistance experiments (Vero cells): No cytotoxic effects
cytotoxic effects (trypan blue staining) (MDCK cells): No cytotoxic effects
IC50 (H5 Avian Influenza virus): 0.5 µM
mice protected [1]: 90%
effect on development of lacZ+ cells when added immediately after citrate treatment (HSV-1 KOS mutant hrR3 [2]): no longer had any effect
reversibility of virion inactivation by overnight dialysis (hrR3 [3]): irreversibly inactivated
IC50 (hrR3 [3]; 4° C., read-out: Virucidal Activity 4° C. IC50): 89 µM
IC50 (hrR3 [3]; first experiment, FIG. 8A, read-out: inhibition of infectivity of virions IC50): 44 µM
IC50 (hrR3 [3]; second experiment, FIG. 8B, read-out: inhibition of infectivity of virions IC50): 69 µM
IC50 (HSV-1 KOS mutant hrR3 [4]; virus input 19 pfu/well): 0.66 µM
IC50 (HSV-1 KOS mutant hrR3 [4]; virus input 210 pfu/well): 1.2 µM
IC50 (HSV-1 KOS mutant hrR3 [4]; virus input 5700 pfu/well): 11 µM
reduction of virus yields (HSV-1 KOS): up to eight orders of magnitude
IC50 (hrR3 [5]; cells pretreated with peptide): 0.9 µM
IC50 (hrR3 [5]; non-pretreated cells): 1.7 µM
effect of trypsin on infectivity of peptide-treated virions (hrR3 virions): did not have any effect
EC50 (MTS assay): 50 µM
EC50 [6]: > 100 µM
cytotoxicity to cells (MTS), overall [7]: generally not cytotoxic
aggregation of virus particles (HSV-1 KOS virions; 25 μM peptide): nearly all of the particles were seen in relatively few large aggregates
time of aggregate formation (HSV-1 KOS virions; room temperature as well as 4° C.): < 5 min

N=C(N)NCCC[C@H](NC(=O)CN)C(=O)N[C@@H](CCCCN)C(=O)N[C@@H](CCCCN)C(=O)N[C@@H](CCCNC(=N)N)C(=O)N[C@@H](CCCNC(=N)N)C(=O)N[C@@H](CCC(N)=O)C(=O)N[C@@H](CCCNC(=N)N)C(=O)N[C@@H](CCCNC(=N)N)C(=O)N[C@@H](CCCNC(=N)N)C(=O)N[C@@H](CS)C(=O)O [TAT-C, NH2-GRKKRRQRRRC-COOH]
mice protected [1]: 90%
IC50 (HSV-1 KOS mutant hrR3 [8]; 33° C., read-out: Inactivation of Pre-Adsorbed Virus 33° C. IC50): 11 µM
IC50 (HSV-1 KOS mutant hrR3 [8]; 33° C., read-out: Virus Inactivation IC50 (pre-adsorbed virus)): 11 µM
IC50 (HSV-1 KOS mutant hrR3 [8]; 33° C., read-out: virus inactivation IC50): 11 µM
IC50 (HSV-1 KOS mutant hrR3 [8]; 37° C., read-out: Inactivation of Pre-Adsorbed Virus 37° C. IC50): 5.2 µM
inhibitory effect after 1 h at 32° C. (HSV-1 KOS mutant hrR3 [9]; 10 or 100 μM peptide): about 90%
virus internalized after cultures were rinsed and shifted to 37° C. (HSV-1 KOS mutant hrR3 [9]; 10 or 100 μM peptide): 25-33%
reversibility of the inhibitory effect after removal of peptide (HSV-1 KOS mutant hrR3 [9]; n50,51TAT-C 10 μM, TAT-C 10 or 100 μM): largely irreversible
effect of trypsin on infectivity of peptide-treated virions (hrR3 virions): no effect on virus infectivity
IC50 (hrR3 virions; read-out: IC50 after exposure of treated virus to 0.01% active trypsin): 86 µM
IC50 (hrR3 virions; read-out: IC50 after exposure of treated virus to inactivated trypsin): 90 µM
concentration at which not toxic (MTS) ([7]; all cell lines tested): > 400 µM
cytotoxicity to cells (MTS), overall [7]: generally not cytotoxic

Reference: patent US7432045B2 (priority 2003, dated 2008)
